In ChEMBL document CHEMBL4609983, “Pan-specific and partially selective dye-labeled peptidic inhibitors of the polycomb paralog proteins” (Bioorg Med Chem, 2020):
The source made the active and inactive calls. Non-standard residues stand in square brackets, D forms with d. Residues, ends and D or L forms follow the SMILES beside them. *: point of attachment. Biotin = O=C1N[C@H]2[C@H](CS[C@H]2CCCCC(=O)*)N1; Lys(Me3) = C[N+](C)(C)CCCC[C@H](N)C(=O)O; Benzoyl(4-Br) = O=C(c1ccc(Br)cc1)*

How the values were obtained:
[1] = target: T1, Chromobox protein homolog 6 (Homo sapiens) (UniProt O95503); assay: Binding affinity to recombinant human CBX6 by microarray based assay
T1 sequence (whole entry): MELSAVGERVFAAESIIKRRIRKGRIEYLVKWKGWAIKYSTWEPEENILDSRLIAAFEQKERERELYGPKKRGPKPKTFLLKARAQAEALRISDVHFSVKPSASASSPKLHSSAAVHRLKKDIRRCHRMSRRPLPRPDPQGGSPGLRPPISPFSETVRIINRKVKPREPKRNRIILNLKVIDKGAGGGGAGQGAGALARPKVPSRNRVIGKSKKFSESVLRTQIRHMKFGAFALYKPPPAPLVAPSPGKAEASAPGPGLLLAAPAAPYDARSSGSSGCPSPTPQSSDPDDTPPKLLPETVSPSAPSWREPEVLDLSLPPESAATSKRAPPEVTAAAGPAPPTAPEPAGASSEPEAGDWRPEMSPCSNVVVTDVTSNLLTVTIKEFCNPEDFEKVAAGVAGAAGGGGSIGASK

[2] = target: T2, Chromobox protein homolog 7 (Homo sapiens) (UniProt O95931); assay: Binding affinity to recombinant human CBX7 by microarray based assay
T2 sequence (whole entry): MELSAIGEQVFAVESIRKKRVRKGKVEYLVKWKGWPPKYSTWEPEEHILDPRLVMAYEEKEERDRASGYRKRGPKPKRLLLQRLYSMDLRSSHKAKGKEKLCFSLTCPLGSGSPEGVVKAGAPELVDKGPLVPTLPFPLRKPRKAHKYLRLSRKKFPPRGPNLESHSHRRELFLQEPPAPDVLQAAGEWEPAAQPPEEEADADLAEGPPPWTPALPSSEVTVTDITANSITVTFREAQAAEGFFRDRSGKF

[3] = target: T3, Testis-specific chromodomain protein Y 1 (Homo sapiens) (UniProt Q9Y6F8); assay: Binding affinity to recombinant human CDY1 by microarray based assay
T3 sequence (whole entry): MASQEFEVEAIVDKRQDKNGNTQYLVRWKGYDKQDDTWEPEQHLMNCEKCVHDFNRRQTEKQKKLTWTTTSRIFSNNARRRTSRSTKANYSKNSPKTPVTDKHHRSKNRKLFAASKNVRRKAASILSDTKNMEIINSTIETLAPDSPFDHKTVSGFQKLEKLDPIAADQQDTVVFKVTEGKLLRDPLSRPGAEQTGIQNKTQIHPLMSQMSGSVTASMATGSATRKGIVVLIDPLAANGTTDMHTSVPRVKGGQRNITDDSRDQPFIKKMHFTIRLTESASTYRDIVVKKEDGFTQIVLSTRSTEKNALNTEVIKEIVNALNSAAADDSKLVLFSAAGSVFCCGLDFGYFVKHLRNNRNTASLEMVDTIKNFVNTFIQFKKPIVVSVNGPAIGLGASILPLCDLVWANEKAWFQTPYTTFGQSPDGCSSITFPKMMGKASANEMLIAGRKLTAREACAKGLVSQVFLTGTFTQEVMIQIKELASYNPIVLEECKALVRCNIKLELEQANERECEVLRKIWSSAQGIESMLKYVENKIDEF

[4] = target: T4, Chromodomain Y-like protein 2 (Homo sapiens) (UniProt Q8N8U2); assay: Binding affinity to recombinant human CDYL2 by microarray based assay
T4 sequence (whole entry): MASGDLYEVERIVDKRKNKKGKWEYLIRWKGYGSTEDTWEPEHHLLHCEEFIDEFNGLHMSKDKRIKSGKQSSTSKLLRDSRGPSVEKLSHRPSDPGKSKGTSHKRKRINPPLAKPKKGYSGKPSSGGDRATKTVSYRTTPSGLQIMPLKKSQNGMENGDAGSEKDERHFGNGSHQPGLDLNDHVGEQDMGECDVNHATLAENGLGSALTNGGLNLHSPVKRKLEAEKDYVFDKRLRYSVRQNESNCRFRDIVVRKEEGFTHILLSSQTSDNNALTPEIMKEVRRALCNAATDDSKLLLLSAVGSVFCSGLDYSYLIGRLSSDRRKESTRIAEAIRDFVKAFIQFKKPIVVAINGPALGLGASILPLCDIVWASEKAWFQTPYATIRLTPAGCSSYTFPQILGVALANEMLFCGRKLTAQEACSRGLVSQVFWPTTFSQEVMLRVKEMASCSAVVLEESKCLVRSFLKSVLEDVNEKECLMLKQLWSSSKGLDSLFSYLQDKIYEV

[5] = target: T5, Chromobox protein homolog 2 (Homo sapiens) (UniProt Q14781); assay: Binding affinity to recombinant human CBX2 by microarray based assay
T5 sequence (whole entry): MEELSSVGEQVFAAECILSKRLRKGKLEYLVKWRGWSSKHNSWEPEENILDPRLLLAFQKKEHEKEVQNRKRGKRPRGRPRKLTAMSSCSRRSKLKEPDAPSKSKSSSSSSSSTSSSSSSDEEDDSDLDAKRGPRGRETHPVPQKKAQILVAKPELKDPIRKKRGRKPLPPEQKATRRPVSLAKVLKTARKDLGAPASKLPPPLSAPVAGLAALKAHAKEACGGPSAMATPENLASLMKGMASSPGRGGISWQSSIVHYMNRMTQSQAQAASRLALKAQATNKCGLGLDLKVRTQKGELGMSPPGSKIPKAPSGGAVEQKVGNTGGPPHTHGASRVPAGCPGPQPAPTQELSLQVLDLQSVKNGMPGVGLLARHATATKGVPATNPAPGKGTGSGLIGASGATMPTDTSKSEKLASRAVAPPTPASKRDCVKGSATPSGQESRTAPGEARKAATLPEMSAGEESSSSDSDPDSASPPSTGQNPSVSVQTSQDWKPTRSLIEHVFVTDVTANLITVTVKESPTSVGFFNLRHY

[6] = target: T6, Chromobox protein homolog 8 (Homo sapiens) (UniProt Q9HC52); assay: Binding affinity to recombinant human CBX8 by microarray based assay
T6 sequence (whole entry): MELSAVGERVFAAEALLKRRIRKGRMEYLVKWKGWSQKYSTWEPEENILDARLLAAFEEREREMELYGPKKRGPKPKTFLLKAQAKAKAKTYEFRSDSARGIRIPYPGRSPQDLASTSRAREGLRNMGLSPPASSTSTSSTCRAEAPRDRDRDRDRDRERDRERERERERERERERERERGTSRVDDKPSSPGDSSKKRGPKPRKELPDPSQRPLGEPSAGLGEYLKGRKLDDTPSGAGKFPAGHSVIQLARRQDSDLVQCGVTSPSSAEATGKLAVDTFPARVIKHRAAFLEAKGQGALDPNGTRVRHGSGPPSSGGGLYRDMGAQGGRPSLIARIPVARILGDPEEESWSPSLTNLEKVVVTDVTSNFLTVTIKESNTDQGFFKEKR

[7] = target: Mortality factor 4-like protein 1 (Homo sapiens) (UniProt Q9UBU8); assay: Binding affinity to recombinant human MORF4L1 by microarray based assay

Measured: Activity

Chain of Mortality factor 4-like protein 1 (Homo sapiens) (Q9UBU8 whole entry): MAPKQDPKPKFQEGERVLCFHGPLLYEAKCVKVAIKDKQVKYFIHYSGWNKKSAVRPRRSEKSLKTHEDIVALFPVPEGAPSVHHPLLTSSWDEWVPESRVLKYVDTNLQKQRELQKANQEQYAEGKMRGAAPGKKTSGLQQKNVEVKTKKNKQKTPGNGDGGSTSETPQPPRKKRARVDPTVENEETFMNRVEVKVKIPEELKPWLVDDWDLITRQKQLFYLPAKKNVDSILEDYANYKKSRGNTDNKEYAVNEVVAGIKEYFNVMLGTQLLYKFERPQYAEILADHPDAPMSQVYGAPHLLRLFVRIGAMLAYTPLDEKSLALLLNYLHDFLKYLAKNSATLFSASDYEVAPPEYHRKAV

CC(C)C[C@H](NC(=O)[C@H](CO)NC(=O)[C@H](CCCC[N+](C)(C)C)NC(=O)[C@H](Cc1ccc(O)cc1)NC(=O)[C@H](C)NC(=O)[C@H](Cc1ccccc1)NC(=O)c1ccc(Br)cc1)C(=O)N[C@@H](CCCCNC(=O)CCCC[C@@H]1SC[C@@H]2NC(=O)N[C@@H]21)C(N)=O ({Benzoyl(4-Br)}-FAY[Lys(Me3)]SLK(Biotin)-NH2)
active: all assays above
